The values that follow come from patent US3984411A, “Pyrimidines” (Societe Generale de Recherches et d'Applications …, priority 1975, dated 1976).

Structures can show the parent of a compound that is named as a salt. Where two headings read alike, the source gives them in different places. Where only a bound is given, the exact number is not on record here.

The test system of data set [1] is mice CD 1 (Charles RIVER). Nature of the data set: Toxicity (LD 50) in mice by intravenous and oral application. In kind it is in vivo. The conditions noted are these: mice CD 1, oral; cumulative quantal method. The source says: (§1) The toxicities of the compounds according to the invention have been determined on mice CD 1 (Charles RIVER) by intravenous and oral applications. The LD 50, calculated by the cumulative quantal method of J. J. Reed and H. Muench, Am.

The test system of a further data set is glycemia. Put plainly: Hypoglycemiant effect in the rat, oral, 4 days treatment. The format is in vivo, male rat CD (Charles RIVER). Conditions: for hypoglycemiant effects (in words): oral, 4 days. The protocol: The hypoglycemiant properties have been studied on the male rat CD (Charles RIVER) of 200-250 g, of which the glycemia is controlled after 4 days of daily treatment by oral application. The serum glucose is determined by the method of W. S. Hoffman, J. Biol. Chem., 120, 51 (1937). Groups of 10 rats are used and the hypoglycemiant activity is expressed by the percentage variation of the average glycemia of the treated animals compared with that of the controls. The statistical significance of the differences observed is determined by application of the STUDENT test.

Data set [2] is described as follows: Toxicity (LD 50) in mice by intravenous and oral application. In kind it is in vivo. The conditions noted are these: mouse, in vivo, cumulative quantal method.
Source text: as §1

A further data set concerns cholesterolemia. Nature of the data set: Hypocholesterolemiant effect in the rat, oral, 4 days treatment. In kind it is in vivo, rat CD (Charles RIVER). Conditions: for hypocholesterolemiant activities (in words): oral, 4 days. The protocol: The hypocholesterolemiant effects of the products according to the invention have been studied on the rat CD (Charles RIVER) by oral application. The animals, divided into groups of 10, are treated daily by gastric probe for 4 consecutive days. Four hours after the last administration, the rats are killed and their blood is collected in order to proceed to the determination of the amount of cholesterol according to the method of J. Levine and B. Zak, Clin. Acta, 10, 381 (1964).
The activity of the substances is evaluated by calculating the percentage variation of the average amount of cholesterol of the animals treated with respect to that of the control animals. Then the statistical significance of the differences observed is determined by application of the STUDENT test.

[3] abbreviates: mice CD 1, intravenous, read-out: Intense toxicities to mice (LD 50), intravenous.
[4] abbreviates: mice CD 1, oral, read-out: Intense toxicities to mice (LD 50), oral.
Setting [5] is: 300 mg/kg taken orally, significant at p = 0.001.
Setting [6] is: 100 mg/kg taken orally, significant at p = 0.001, except Example 18 at p = 0.05.
[7] abbreviates: 100 mg/kg taken orally, significant at p = 0.001.
[8] abbreviates: 50 mg/kg taken orally, all values significant at p = 0.001.

On to `CN1CCC(Oc2cc(OC3CCN(C)CC3)nc(N3CCOCC3)n2)CC1` [Example 23, 2-morpholino-4,6-di[(N-methyl-4'-piperidyl)oxy]-pyrimidine], for which the “Intense toxicities to mice (LD 50), oral” value in data set [1] is on record as “atoxic at 900”. Also, the “Percentage variation of the glycemia compared with the controls after 4 days treament” value (“Percentage variation of the glycemia” for short) in the data set with glycemia (400 mg/kg taken orally, significant at p = 0.001) was -20%.

Turning to `CCOc1c(OC2CCN(C)CC2)nc(N2CCOCC2)nc1OC1CCN(C)CC1` [Example 19, 2-morpholino-4,6-di[(N-methyl-4'-piperidyl)oxy]-5-ethoxy-pyrimidine dihydrochloride], the results for the LD50 in data set [2] (setting [3]) and in data set [2] (setting [4]) were 70 mg/kg and approximately 600 mg/kg, respectively. Moreover, in the data set with glycemia (setting [5]), the “Percentage variation of the glycemia” value is given as -43%. Also, the “hypoglycemiant effects (in words)” value in the data set with glycemia is on record as “especially large hypoglycemiant effects”.

Consider `CN1CCC(Oc2nc(N3CCOCC3)nc(OC3CCN(C)CC3)c2-c2ccc(Cl)cc2)CC1` [Example 18, 2-morpholino-4,6-di[(N-methyl-4'-piperidyl)oxy]-5-p-chlorophenyl-pyrimidine], for which the figures for the “Variation of the cholesterolemia in % with respect to the controls after 4 days treatment” value (shortened to “Variation of the cholesterolemia in %”) in the data set on cholesterolemia (setting [6]) and with cholesterolemia (setting [5]) were -14% and -44%, respectively. The LD50 was 20 mg/kg in data set [2] (setting [3]) and approximately 600 mg/kg in data set [2] (setting [4]). The “Percentage variation of the glycemia” value with glycemia (setting [7]) was -29%; in the data set with glycemia (setting [5]), -35%. In addition, in the data set with glycemia, the “hypoglycemiant effects (in words)” value was “especially large hypoglycemiant effects”.

On to `CN1CCC(Oc2nc(N3CCOCC3)nc(OC3CCN(C)CC3)c2Oc2ccc(Cl)cc2)CC1` [Example 20, 2-morpholino-4,6-di[(N-methyl-4'-piperidyl)oxy]-5-p-chlorophenoxy-pyrimidine], for which, in the data set with cholesterolemia (setting [6]), the “Variation of the cholesterolemia in %” value was -47%. Also, the “hypocholesterolemiant activities (in words)” value in the data set on cholesterolemia was “remarkable hypocholesterolemiant activities”. Also, the LD50 in data set [2] (setting [4]) was more than 900 mg/kg. Also, the “Percentage variation of the glycemia” value with glycemia (setting [5]) was -27%. Also, the “hypoglycemiant effects (in words)” value in the data set on glycemia is recorded as “especially large hypoglycemiant effects”.

Consider `COc1c(OC2CCN(C)CC2)nc(N2CCOCC2)nc1OC1CCN(C)CC1` [Example 14, 2-morpholino-4,6-di[(N-methyl-4'-piperidyl)oxy]-5-methoxy-pyrimidine], for which the “Intense toxicities to mice (LD 50), oral” value in data set [1] is listed as “atoxic at 900”. The LD50 in data set [2] (setting [3]) amounted to 67 mg/kg. Besides, the “Percentage variation of the glycemia” value with glycemia (200 mg/kg taken orally, significant at p = 0.001) is -24%.

`CCc1c(OC2CCN(C)CC2)nc(N2CCOCC2)nc1OC1CCN(C)CC1` [Example 16, 2-morpholino-4,6-di[(N-methyl-4'-piperidyl)oxy]-5-ethyl-pyrimidine dihydrobromide]: the “Variation of the cholesterolemia in %” value in the data set with cholesterolemia (setting [6]) is given as -60%. In addition, the “hypocholesterolemiant activities (in words)” value in the data set on cholesterolemia is recorded as “remarkable hypocholesterolemiant activities”. Besides, the figures for the LD50 in data set [2] (setting [3]) and in data set [2] (setting [4]) were 54 mg/kg and approximately 525 mg/kg, respectively.

In the case of `CN1CCC(Oc2nc(N3CCOCC3)nc(OC3CCN(C)CC3)c2Cc2ccccc2)CC1` [Example 21, 2-morpholino-4,6-di[(N-methyl-4'-piperidyl)oxy]-5-benzyl-pyrimidine], the “Variation of the cholesterolemia in %” value in the data set on cholesterolemia (setting [6]) is -39%. In addition, the LD50 in data set [2] (setting [3]) was 40 mg/kg; in data set [2] (setting [4]) it was approximately 800 mg/kg. Further, in the data set with glycemia (setting [7]), the “Percentage variation of the glycemia” value is -27%. For the same compound, in the data set with glycemia, the “hypoglycemiant effects (in words)” value is given as “especially large hypoglycemiant effects”.

For `Cc1c(OC2CCN(C)CC2)nc(N2CCOCC2)nc1OC1CCN(C)CC1` [Example 15, 2-moropholino-4,6-di[(N-methyl-4'-piperidyl)oxy]-5-methyl-pyrimidine], in the data set with cholesterolemia (setting [8]), the “Variation of the cholesterolemia in %” value is -31%. The “hypocholesterolemiant activities (in words)” value with cholesterolemia is given as “remarkable hypocholesterolemiant activities”. The “Intense toxicities to mice (LD 50), oral” value in data set [1] was “atoxic at 900”. For the same compound, the LD50 in data set [2] (setting [3]) was 81 mg/kg. The “Percentage variation of the glycemia” value in the data set on glycemia (50 mg/kg taken orally, significant at p = 0.05) is reported as -12%.

For `CCCCc1c(OC2CCN(C)CC2)nc(N2CCOCC2)nc1OC1CCN(C)CC1` [Example 17, 2-morpholino-4,6-di[(N-methyl-4'-piperidyl)oxy]-5-n-butyl-pyrimidine dihydrochloride], the “Variation of the cholesterolemia in %” value in the data set with cholesterolemia (setting [6]) was -36%. Also, the LD50 in data set [2] (setting [4]) was approximately 225 mg/kg.

With `CN1CCC(Oc2nc(N3CCOCC3)nc(OC3CCN(C)CC3)c2Cl)CC1` [Example 22, 2-morpholino-4,6-di[(N-methyl-4'-piperidyl)oxy]-5-chloro-pyrimidine], the entries for the “Variation of the cholesterolemia in %” value with cholesterolemia (setting [8]) and with cholesterolemia (setting [6]) were -19% and -45%, respectively. Besides, the “hypocholesterolemiant activities (in words)” value with cholesterolemia is on record as “remarkable hypocholesterolemiant activities”. For the same compound, the “Intense toxicities to mice (LD 50), oral” value in data set [1] is listed as “atoxic at 900”.
